{"source": "patent US20030004143A1", "about": "“Use of NSAIDs for prevention and treatment of cellular abnormalities of the female reproductive tract” (priority 2001, published 2003)", "origin": "cited, not measured here", "key": {"OPC cell lines": {"test_system": "OPC cell lines", "conditions": "all OPC cell lines tested"}}}
{"smiles": "O=C(c1ccccc1)c1ccc2n1CCC2C(=O)O", "note": "(stereo not shown) [ketorolac, (.+−.)5(benzoyl)-2,3-dihydro-1H-pyrrolizine-1carboxylic acid]", "values": [{"measurement": "IL-6 levels", "setting": "OPC cell lines", "result": "continuously and significantly decreased"}, {"measurement": "IL-8 levels", "setting": "OPC cell lines", "result": "continuously and significantly decreased"}, {"measurement": "PGE2 production", "setting": "OPC cell lines", "result": "continuously and significantly decreased"}, {"measurement": "OPC growth in vivo", "setting": "OPC", "result": "reduced OPC growth in vivo"}]}
